What follows are compounds tested against T1, histamine 3 receptor (H3R) (Homo sapiens, UniProt Q9Y5N1) (assay: Competition binding assay with 3H-(R)α-methylhistamine on membranes of the human HR3-CHO cell line). Conditions: membrane of human HR3-CHO cell line; 3H(R)α-Methylhistamine 1 nM; Ki calculated from IC50 by Cheng-Prusoff equation.
T1 construct: expressed in transfected cells; host or cells: CHO cells (HR3-CHO cell line), membranes
Description: Binding Assay with ^3H-(R)α-methylhistamine
Saturation binding experiments were performed using HR3-CHO membranes prepared as described in Takahashi, K, Tokita, S., Kotani, H. (2003) J. Pharmacol. Exp. Therapeutics 307, 213-218.
An appropriate amount of membrane (60 to 80 μg protein/well) was incubated with increasing concentrations of ^3H(R)α-Methylhistamine di-hydrochloride (0.10 to 10 nM). Non specific binding was determined using a 200 fold excess of cold (R)α-Methylhistamine dihydrobromide (500 nM final concentration). The incubation was carried out at room temperature (in deep-well plates shaking for three hours). The final volume in each well was 250 μl. The incubation was followed by rapid filtration on GF/B filters (pre-soaked with 100 μl of 0.5% PEI in Tris 50 mM shaking at 200 rpm for two hours). The filtration was made using a cell-harvester and the filter plates were then washed five times with ice cold washing buffer containing 0.5 M NaCl. After harvesting, the plates were dried at 55° C. for 60 min, then we added scintillation fluid (Microscint 40, 40 microl in each well) and the amount of radioactivity on the filter was determined in Packard top-counter after shaking the plates for two hours at 200 rpm at room temperature.
Binding Buffer: 50 mM Tris-HCl pH 7.4 and 5 mM MgCl2×6H2O pH 7.4. Washing Buffer: 50 mM Tris-HCl pH 7.4 and 5 mM MgCl2×6H2O and 0.5 M NaCl pH 7.4.
Indirect measurement of affinity of H3R inverse agonists: twelve increasing concentrations (ranging from 10 μM to 0.3 nM) of the selected compounds were always tested in competition binding experiments using membrane of the human HR3-CHO cell line. An appropriate amount of protein, e.g. approximately 500 cpm binding of RAMH at Kd, were incubated for 1 hour at room temperature in 250 μl final volume in 96-well plates in presence of ^3H(R)α-Methylhistamine (1 nM final concentration=Kd). Non-specific binding was determined using a 200 fold excess of cold (R)α-Methylhistamine dihydrobromide.
All compounds were tested at a single concentration in duplicates.

T1 sequence (Q9Y5N1 whole entry): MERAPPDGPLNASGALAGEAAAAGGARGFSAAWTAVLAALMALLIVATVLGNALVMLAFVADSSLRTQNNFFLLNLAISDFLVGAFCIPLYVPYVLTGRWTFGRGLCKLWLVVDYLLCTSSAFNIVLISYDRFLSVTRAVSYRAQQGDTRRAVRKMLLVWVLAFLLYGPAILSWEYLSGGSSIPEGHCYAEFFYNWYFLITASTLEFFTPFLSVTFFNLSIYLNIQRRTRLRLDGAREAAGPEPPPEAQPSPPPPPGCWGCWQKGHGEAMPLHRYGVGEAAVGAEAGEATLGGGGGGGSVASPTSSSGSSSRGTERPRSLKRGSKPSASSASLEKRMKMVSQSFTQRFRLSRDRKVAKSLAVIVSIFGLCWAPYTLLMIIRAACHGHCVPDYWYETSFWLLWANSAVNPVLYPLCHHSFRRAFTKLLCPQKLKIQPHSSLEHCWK

| Ki [nM] | SMILES |
| --- | --- |
| 25.5 | O=C(c1cc2cc(OCCCN3CCCC3)cnc2[nH]1)N1CCOCC1 [Example 5, Morpholin-4-yl-[5-(3-pyrrolidin-1-yl-propoxy)-1H-pyrrolo[2,3-b]pyridin-2-yl]-methanone] |
| 28.9 | CC(C)N1CCC(Oc2cnc3[nH]c(C(=O)N4CCC(F)(F)CC4)cc3c2)CC1 [Example 13, (4,4-Difluoro-piperidin-1-yl)-[5-(1-isopropyl-piperidin-4-yloxy)-1H-pyrrolo[2,3-b]pyridin-2-yl]-methanone] |
| 9.4 | CC(C)N1CCC(Oc2cnc3c(c2)cc(C(=O)N2CCC(F)(F)CC2)n3C(C)C)CC1 [Example 22, (4,4-Difluoro-piperidin-1-yl)-[1-isopropyl-5-(1-isopropyl-piperidin-4-yloxy)-1H-pyrrolo[2,3-b]pyridin-2-yl]-methanone] |

Source: patent US7622466B2, “Azaindole-2-carboxamide derivatives” (Hoffman-La Roche Inc., priority 2005, dated 2009)
